Results on 61 compounds are retold here after US20260097047A1, “Small molecule inhibitors of the ribosome biogenesis factor NVL2” (Board of Regents, The University of Texas System, priority 2023, published 2026).

The test system of one experiment is HCT116 cells. Briefly: Cell viability assay (CellTiter-Glo, 72 hours) in HCT116 human colorectal cancer cells. In kind it is cell-based. The note with it: Homo sapiens, HCT-116; Table 5; HCT116, 72 hours; read-out: Activity. The method, boiled down: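 2,000 cells/well adhered overnight, then compound added by digital dispenser with DMSO normalized to 0.5%. Viability read after 72 h at 37 °C by ATP-based CellTiter-Glo luminescence. IC50 from ten-point curves baseline-corrected to vehicle, five-parameter asymmetric least-squares fit.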
(In general: Cellular ATP, detected with luciferase, serves as a proxy for viable cell number.)
As for `CC#CCN1C(=O)c2ccccc2Sc2cc(Nc3cccnn3)ccc21` [10-(But-2-yn-1-yl)-7-(pyridazin-3-ylamino)dibenzo[b,f][1,4]thiazepin-11 (10H)-one], the IC50 is below 500 nM. On the same count and under the same terms, in the case of `CCC/C=C/CN1C(=O)c2ccccc2Sc2cc(Nc3ncccc3OC)ccc21` [(E)-10-(Hex-2-en-1-yl)-7-((3-methoxypyridin-2-yl)amino)dibenzo[b,f][1,4]thiazepin-11 (10H)-one] it was 500 to 1000 nM. On the same count and under the same terms, in the case of `CC#CCN1C(=O)c2ccccc2Sc2cc(Nc3nccc(-c4cccnc4)n3)ccc21` [10-(But-2-yn-1-yl)-7-((4-(pyridin-3-yl)pyrimidin-2-yl)amino)dibenzo[b,f][1,4]thiazepin-11 (10H)-one] it was below 500 nM.

The same experiment, now with this note: Homo sapiens, HCT-116; Table 6; HCT116, 72 hours; read-out: Activity.
Regarding `CC#CCN1C(=O)c2ccccc2Sc2cc(NC3CCCC3)cnc21` [Table 6: —CH2CCMe; cPent; CH/N; S, 11-(But-2-yn-1-yl)-3-(cyclopentylamino)benzo[f]pyrido[3,2-b][1,4]thiazepin-10(11H)-one], the IC50 was below 500 nM. Still for that read-out and setting: in the case of `CC#CCN1C(=O)c2ccccc2Sc2cc(NC3COCC3C#N)ccc21` (stereo not shown) [4-((10-(But-2-yn-1-yl)-11-oxo-10,11-dihydrodibenzo[b,f][1,4]thiazepin-7-yl)amino)tetrahydrofuran-3-carbonitrile] it was 1000 to 5000 nM.

The experiment is the same for the next values; noted with them: Table 1; HCT116, 72 hours; read-out: Activity.
As for `CC#CCN1C(=O)c2ccccc2Sc2cc(NC(=O)N3CCCCC3)ccc21`, the IC50 was below 500 nM.

The same experiment, now with this note: Table 2; HCT116, 72 hours; read-out: Activity.
In the case of `CC#CCN1C(=O)c2ccccc2Sc2cc(NC(=S)N3CCC3)cnc21` [Table 2: —CH2CCMe; azetidin-1-yl; CH; N], the IC50 is below 500 nM.

Still in this experiment, the particulars now being: Table 3; HCT116, 72 hours; read-out: Activity.
`CC#CCN1C(=O)c2ccccc2Sc2cc(NC(=O)N[C@H]3C[C@@H](OC)C3)cnc21` [Table 3: —CH2CCMe; cis-3-MeOcBu; CH/N]: the IC50 is below 500 nM. Still for that read-out and setting: in the case of `CC#CCN1C(=O)c2ccccc2Sc2cc(NC(=O)N[C@H]3C[C@H](O)C3)cnc21` [Table 3: —CH2CCMe; trans-3-OH-cBu; CH/N] it was below 500 nM; in that of `CC#CCN1C(=O)c2ccccc2Sc2cc(NC(=O)NC3CC(COC)C3)ccc21` (stereo not shown) [Table 3: —CH2CCMe; 3-MeOCH2-cBu; CH/CH], below 500 nM.

The experiment is the same for the next values; noted with them: Table 4; HCT116, 72 hours; read-out: Activity.
`CC#CCN1C(=O)c2ccccc2Sc2cc(NC(=S)N[C@H]3C[C@@H](OC)C3)ccc21` [Table 4: —CH2CCMe; cis-3-MeOcBu; CH]: the IC50 was below 500 nM. For `CC#CCN1C(=O)c2ccccc2Sc2cc(NC(=S)Nc3ccc(OCF)cc3)cnc21` [Table 4: —CH2CCMe; 4-FH2COPh; N], the IC50 was below 500 nM.

The same experiment, now with this note: Table 5; HCT116, 72 hours; read-out: Activity.
Regarding `CC#CCN1C(=O)c2ccccc2Sc2cc(Nc3ncccc3F)cnc21`, the IC50 was below 500 nM. Same read-out and setting: in the case of `Cc1cnc(C)c(Nc2cnc3c(c2)Sc2ccccc2C(=O)N3CC#CCl)n1` it was below 500 nM. The same measure, in the same setting: in the case of `C#CCN1C(=O)c2ccccc2Sc2cc(Nc3nc(C)cnc3C)ccc21` it was below 500 nM; in that of `Cc1ccnnc1Nc1cnc2c(c1)Sc1ccccc1C(=O)N2CC#CCl`, below 500 nM; in that of `CC=CCN1C(=O)c2ccccc2Sc2cc(Nc3nccnc3C)cnc21`, below 500 nM. Still for that read-out and setting: in the case of `CC#CCN1C(=O)c2ccccc2Sc2cc(Nc3nccc(C)c3F)cnc21` it was below 500 nM.

Still in this experiment, the particulars now being: Table 6; HCT116, 72 hours; read-out: Activity.
Turning to `C#CCN1C(=O)c2ccccc2Sc2cc(NC3CC(O)C3)ccc21` (stereo not shown) [Table 6: —CH2CCH; 3-HOcBu; CH/CH; S], the IC50 is below 500 nM. Still for that read-out and setting: next, `CC#CCN1C(=O)c2ccccc2Sc2cc(NC34CC(OC)(C3)C4)cnc21`: below 500 nM. For `CC#CCN1C(=O)c2ccccc2Sc2cc(NC3COC3)cnc21` [Table 6: —CH2CCMe; oxetan-3-yl; CH/N; S], the IC50 was below 500 nM. Still for that read-out and setting: in the case of `CC#CCN1C(=O)c2ccccc2Sc2cc(NC3CC4(CC(=O)C4)C3)ccc21` it was below 500 nM; in that of `C#CCN1C(=O)c2ccccc2Sc2cc(NC3CC(OC)C3)ccc21` (stereo not shown) [Table 6: —CH2CCH; 3-MeOcBu; CH/CH; S], below 500 nM.

Staying with this experiment, now noted: Table 7; cell viability assay, CellTiter-Glo, 72 hours; scaffold drawing 42 with R^2, R^3, X/Y, Z; read-out: Activity.
Regarding `COCCN1C(=O)c2ccccc2Sc2cc(NC(=O)c3ccc(N=[N+]=[N-])cc3)ccc21` [—(CH2)2OMe; 4-N3Ph; CH/CH; S], the IC50 was 1000 to 5000 nM. The same measure, in the same setting: next, `COCCN1C(=O)c2ccccc2Sc2cc(NC(=O)C3CCCCCC3)ccc21` [—(CH2)2OMe; cHeptyl; CH/CH; S]: 1000 to 5000 nM; `COCCN1C(=O)c2ccccc2Sc2cc(NC(=O)C3CCC3)ccc21` [—(CH2)2OMe; cBu; CH/CH; S]: 500 to 1000 nM. On to `COCCN1C(=O)c2ccccc2Sc2cc(NC(=O)C3CCOCC3)ccc21`, for which the IC50 was 1000 to 5000 nM.

Consider `COCCN1C(=O)c2ccccc2Sc2cc(NC(=O)c3ccc(Cl)c(Cl)c3)ccc21` [—(CH2)2OMe; 3,4-Cl2Ph; CH/CH; S], for which the IC50 is 1000 to 5000 nM. The same measure, in the same setting: in the case of `COCCN1C(=O)c2ccccc2Sc2cc(NC(=O)c3cccc(C(N)=O)c3)ccc21` [—(CH2)2OMe; 3-H2NC(O)Ph; CH/CH; S] it was 1000 to 5000 nM.

The same experiment, now with this note: Table 8; analogs of scaffold drawing 43 defined by R^2, R^3, X/Y, W; read-out: Activity (IC50 class, cell viability assay).
On to `CC#CCN1C(=O)c2ccccc2Sc2cc(NC(=O)C3CCN(C)C3)ccc21` (stereo not shown), for which the IC50 was in the range of 1000 to 5000 nM. Still for that read-out and setting: next, `CC#CCN1C(=O)c2ccccc2Sc2cc(NC(=O)C3CCCO3)ccc21` (stereo not shown): below 500 nM; `CON=C1CC2(C1)CC(C(=O)Nc1ccc3c(c1)Sc1cc(Cl)ccc1C(=O)N3CC#CCl)C2` (stereo not shown): below 500 nM. Still for that read-out and setting: next, `C#CCN1C(=O)c2ccc(Cl)cc2Sc2cc(NC(=O)C3CC4(CC(=NO)C4)C3)ccc21` (stereo not shown): below 500 nM.

Regarding `COCC1CC(C(=O)Nc2cnc3c(c2)Sc2cc(Cl)ccc2C(=O)N3CC#CCl)C1` (stereo not shown) [—CH2CCCl; 3-MeOCH2-cBu; CCI/CH; N], the IC50 is below 500 nM. On the same count and under the same terms, in the case of `COCCCC(=O)Nc1cnc2c(c1)Sc1ccccc1C(=O)N2CC#CC1CC1` [—CH2CC^cPr; (CH2)3OMe; CH/CH; N] it was below 500 nM; in that of `CC#CCN1C(=O)c2ccc(Cl)cc2Sc2cc(NC(=O)[C@H]3C[C@@H](O)C3)cnc21` [—CH2CCMe; cis-3-OH-cBu; CCI/CH; N], below 500 nM; in that of `CC#CCN1C(=O)c2ccccc2Sc2cc(NC(=O)NCCOC)cnc21` [—CH2CCMe; NH(CH2)2OMe; CH/CH; N], below 500 nM. On to `CC#CCN1C(=O)c2ccccc2Sc2cc(NC(=O)C3CCC3)ccc21` [—CH2CCMe; cBu; CH/CH; CH], for which the IC50 is below 500 nM. For the compound `CC#CCN1C(=O)c2ccccc2Sc2cc(NC(=O)C3CC4(CC(=NOC)C4)C3)cnc21` (stereo not shown), the IC50 was below 500 nM. Turning to `O=C1c2cc(F)ccc2Sc2cc(NC(=O)C34CC(O)(C3)C4)cnc2N1CC#CC1CC1`, the IC50 is below 500 nM.

As to `CC#CCN1C(=O)c2ccccc2Sc2cc(NC(=O)C34CC(OC)(C3)C4)cnc21`, the IC50 was below 500 nM. Still for that read-out and setting: in the case of `CC#CCN1C(=O)c2ccccc2Sc2cc(NC(=O)C=CCOC)ccc21` [—CH2CCMe; CH═CHCH2OMe; CH/CH; CH] it was below 500 nM; in that of `CO[C@H]1C[C@@H](C(=O)Nc2ccc3c(c2)Sc2ccc(F)cc2C(=O)N3CC#CCF)C1` [—CH2CCCH2F; cis-3-MeOcBu; CH/CF; CH], below 500 nM. Still for that read-out and setting: in the case of `CC#CCN1C(=O)c2ccccc2Sc2cc(NC(=O)C3CCNC3=O)ccc21` (stereo not shown) it was 500 to 1000 nM; in that of `C#CCN1C(=O)c2ccc(Cl)cc2Sc2cc(NC(=O)[C@H]3C[C@H](OC)C3)ccc21` [—CH2CCH; trans-3-MeOcBu; CCl/CH; CH], below 500 nM; in that of `O=C1c2ccccc2Sc2cc(NC(=O)C34CC(F)(C3)C4)cnc2N1CC#CC1CC1`, below 500 nM. As for `O=C1CC2(C1)CC(C(=O)Nc1cnc3c(c1)Sc1ccccc1C(=O)N3CC#CC1CC1)C2`, the IC50 is below 500 nM. Same read-out and setting: next, `CO[C@H]1C[C@H](C(=O)Nc2ccc3c(c2)Sc2ccc(F)cc2C(=O)N3CC#CCl)C1` [—CH2CCCl; trans-3-MeOcBu; CH/CF; CH]: below 500 nM; `O=C(Nc1ccc2c(c1)Sc1ccc(F)cc1C(=O)N2CC#CC1CC1)C1CC2(COC2)C1`: below 500 nM; `O=C(C=CCO)Nc1cnc2c(c1)Sc1ccccc1C(=O)N2CC#CC(F)(F)F` [—CH2CCCF3; CH—═CHCH2OH; CH/CH; N]: below 500 nM.

As to `CON=C1CC2(C1)CC(C(=O)Nc1ccc3c(c1)Sc1ccccc1C(=O)N3CC#CCl)C2` (stereo not shown), the IC50 is below 500 nM.

The experiment is the same for the next values; noted with them: Table 9; HCT116, 72 hours; read-out: Activity.
`COCC1CC(C(=O)Nc2ccc3c(c2)C(C)(O)c2ccccc2C(=O)N3CC#CC2CC2)C1` (stereo not shown) [Table 9: —CH2CCcPr; 3-MeOCH2-cBu; CMeOH]: the IC50 was below 500 nM. Still for that read-out and setting: next, `CC#CCN1C(=O)c2ccccc2C(C)c2cc(NC(=O)OCCOC)ccc21` (stereo not shown) [Table 9: —CH2CCMe; O(CH2)2OMe; CHMe]: below 500 nM; `COc1ccc(C(=O)Nc2ccc3c(c2)C(C)(O)c2ccccc2C(=O)N3CC#CCl)cn1` (stereo not shown): below 500 nM; `CO[C@H]1C[C@H](C(=O)Nc2ccc3c(c2)C(C)(O)c2ccccc2C(=O)N3CC#CCl)C1` (stereo partly drawn) [Table 9: —CH2CCCl; trans-3-MeOcBu; CMeOH]: below 500 nM. On the same count and under the same terms, in the case of `C#CCN1C(=O)c2ccccc2C(C#N)c2cc(NC(=O)[C@H]3C[C@@H](OC)C3)ccc21` (stereo partly drawn) [Table 9: —CH2CCH; cis-3-MeOcBu; CHCN] it was below 500 nM. With `CC#CCN1C(=O)c2ccccc2C(C)c2cc(NC(=O)C3CC4(CC(O)C4)C3)ccc21` (stereo not shown), the IC50 is below 500 nM. Consider `CC#CCN1C(=O)c2ccccc2C(C)c2cc(NC(=O)C3CC3CO)ccc21` (stereo not shown), for which the IC50 is below 500 nM.

With `CC1c2ccccc2C(=O)N(CC#CC2CC2)c2ccc(NC(=O)C3CC4(CC(=O)C4)C3)cc21` (stereo not shown), the IC50 was below 500 nM. Still for that read-out and setting: next, `CC#CCN1C(=O)c2ccccc2C(C)c2cc(NC(=O)C3COC3)ccc21` (stereo not shown) [Table 9: —CH2CCMe; oxetan-3-yl; CHMe]: below 500 nM; `CC#CCN1C(=O)c2ccccc2Cc2cc(NC(=O)C34CC(OC)(C3)C4)ccc21`: below 500 nM.
